The NIST ThermoML archive (doi:10.1016/j.jct.2013.05.051)
Numbers after ± are expanded uncertainties.

Settings: Liquid, Vibrating tube method

CCCCCCC [heptane]
mass density [kg/m3]
Settings | 298.15 K | 313.15 K | 333.15 K | 353.15 K | 373.15 K | 393.15 K
100 kPa | 679.5 ± 1.4 | 666.6 ± 1.4 | 648.9 ± 1.4 | 631.2 ± 1.4 | – | –
1000 kPa | 680.4 ± 1.4 | 667.6 ± 1.4 | 650 ± 1.4 | 632.1 ± 1.4 | 613.3 ± 1.4 | 593.5 ± 1.4
5000 kPa | 684.2 ± 1.4 | 671.8 ± 1.4 | 655 ± 1.4 | 637.8 ± 1.4 | 620.1 ± 1.4 | 601.7 ± 1.4
10000 kPa | 688.6 ± 1.4 | 676.7 ± 1.4 | 660.6 ± 1.4 | 644.3 ± 1.4 | 627.7 ± 1.4 | 610.6 ± 1.4
15000 kPa | 692.8 ± 1.4 | 681.3 ± 1.4 | 665.8 ± 1.4 | 650.3 ± 1.4 | 634.5 ± 1.5 | 618.4 ± 1.5
20000 kPa | 696.7 ± 1.5 | 685.6 ± 1.5 | 670.6 ± 1.5 | 655.7 ± 1.5 | 640.7 ± 1.5 | 625.4 ± 1.5
25000 kPa | 700.4 ± 1.5 | 689.5 ± 1.5 | 675.1 ± 1.5 | 660.8 ± 1.5 | 646.3 ± 1.5 | 631.7 ± 1.5
30000 kPa | 704 ± 1.5 | 693.5 ± 1.5 | 679.4 ± 1.5 | 665.5 ± 1.5 | 651.6 ± 1.5 | 637.5 ± 1.5
35000 kPa | 707.4 ± 1.5 | 697.1 ± 1.5 | 683.4 ± 1.5 | 670 ± 1.5 | 656.5 ± 1.5 | 643 ± 1.5
40000 kPa | 710.7 ± 1.5 | 700.5 ± 1.5 | 687.3 ± 1.5 | 674.1 ± 1.5 | 661.1 ± 1.5 | 648 ± 1.6
45000 kPa | 713.8 ± 1.5 | 703.9 ± 1.5 | 690.9 ± 1.5 | 678.1 ± 1.6 | 665.5 ± 1.6 | 652.8 ± 1.6
50000 kPa | 716.8 ± 1.5 | 707.2 ± 1.6 | 694.4 ± 1.6 | 682 ± 1.6 | 669.6 ± 1.6 | 657.2 ± 1.6
55000 kPa | 719.7 ± 1.6 | 710.3 ± 1.6 | 697.7 ± 1.6 | 685.5 ± 1.6 | 673.5 ± 1.6 | 661.5 ± 1.6
60000 kPa | 722.5 ± 1.6 | 713.3 ± 1.6 | 701 ± 1.6 | 689.1 ± 1.6 | 677.3 ± 1.6 | 665.5 ± 1.7
65000 kPa | 725.2 ± 1.6 | 716.1 ± 1.6 | 704.1 ± 1.6 | 692.4 ± 1.6 | 680.8 ± 1.7 | 669.3 ± 1.7
70000 kPa | 727.9 ± 1.6 | 718.9 ± 1.6 | 707.1 ± 1.7 | 695.7 ± 1.7 | 684.3 ± 1.7 | 673.1 ± 1.7
80000 kPa | 732.9 ± 1.7 | 724.2 ± 1.7 | 712.8 ± 1.7 | 701.7 ± 1.7 | 690.8 ± 1.7 | 680.1 ± 1.8
90000 kPa | 737.7 ± 1.7 | 729.3 ± 1.7 | 718.2 ± 1.8 | 707.5 ± 1.8 | 696.9 ± 1.8 | 686.5 ± 1.8
100000 kPa | 742.3 ± 1.8 | 734 ± 1.8 | 723.2 ± 1.8 | 712.8 ± 1.8 | 702.6 ± 1.9 | 692.5 ± 1.9
110000 kPa | 746.6 ± 1.8 | 738.6 ± 1.8 | 728.1 ± 1.8 | 717.9 ± 1.9 | 708 ± 1.9 | 698.2 ± 1.9
120000 kPa | 750.7 ± 1.8 | 742.8 ± 1.9 | 732.6 ± 1.9 | 722.7 ± 1.9 | 713 ± 2 | 703.4 ± 2
130000 kPa | 754.6 ± 1.9 | 747 ± 1.9 | 737 ± 1.9 | 727.3 ± 2 | 717.9 ± 2 | 708.5 ± 2
140000 kPa | 758.4 ± 1.9 | 751.1 ± 2 | 741.1 ± 2 | 731.6 ± 2 | 722.3 ± 2.1 | 713.4 ± 2.1
